Experiments:
seizure threshold = assay: subcutaneous metrazol (sc Met) test; details: Rattus norvegicus, po, read-out: sc Met anticonvulsant activity (ED50)
seizure spread = assay: maximal electroshock (MES) test; details: for ED50: Rattus norvegicus, po, read-out: MES anticonvulsant activity (ED50)
offspring = details: cited from earlier work
in vivo = details: rat, po

| Compound | ED50 (seizure threshold) | ED50 (seizure spread) | teratogenicity (offspring) | TD50 (in vivo) | potency in MES test relative to VPA (seizure spread; MES test, vs VPA) | PI-MES (protective index): TD50/ED50 (seizure spread; oral, rats, MES) | potency in MES test relative to (R)-HP-VPD (seizure spread; MES test, vs (R)-HP-VPD (II)) | SI (stereoselective index) = (R)-HP-VPD/(S)-HP-VPD (seizure spread; MES, oral, rats) |
| --- | --- | --- | --- | --- | --- | --- | --- | --- |
| CCCC(CCC)C(=O)O [VPA, Valproic acid, reference compound] | 180 mg/kg | 490 mg/kg | associated with teragenecity | – | – | – | – | – |
| CCCC(CCC)C(=O)NCC(C)O (racemic) [HP-VPD (rac)] | > 250 mg/kg | 92 mg/kg | – | > 250 mg/kg | five times more potent than VPA | > 2.7 | – | – |
| CCCC(CCC)C(=O)NC[C@@H](C)O [(R)-HP-VPD, N-(2-OH-propyl)valpromide] | – | 117 mg/kg | – | > 500 mg/kg | – | > 4.3 | – | – |
| CCCC(CCC)C(=O)NC[C@H](C)O [(S)-HP-VPD, N-(2-OH-propyl)valpromide] | – | 48 mg/kg | – | > 650 mg/kg | – | > 13.5 | more than two times more potent than (R)-HP-VPD | 2.4 |
